Measurements reported in patent US20140378422A1, “Combination of a RTK inhibitor with an anti-estrogen and use thereof for the treatment of cancer” (NOVARTIS AG, priority 2012, published 2014).

Tests used:
metastatic breast cancer = test: Clinical trial of Compound A as single agent in metastatic breast cancer patients; assay type: in vivo, human; conditions: preliminary results
CAMA-1 cell line = test: CAMA-1 cell proliferation, CellTiter-Glo Luminescent Cell Viability Assay, dose matrix analysed with Chalice Analyzer; assay type: cell-based; conditions: standard media, 72 hrs, FIG. 2A
Description: Cell lines were grown at 37° C. and 5% CO2.
24 hours following plating, 20 ul of each compound dilution series was transferred to plates containing the cells, resulting in compound concentration ranges from 50 nM to 4000 nM by 3-fold dilutions and a final DMSO concentration of 0.16%. The total volume in each well was 100 ul and each dose matrix was tested in triplicate on separate assay plates.
The average and standard deviation percent inhibition relative to DMSO treated control for triplicate compound-treated wells at each concentration of compounds was determined and up-loaded to Chalice Analyzer Database.

| Compound | unconfirmed partial responses (metastatic breast cancer; patients with FGF amplified disease (FGFR1 and/or FGFR2 and/or FGF3 amplification)) | patients with stable disease for greater than 24 weeks and/or a partial response that was not confirmed at four weeks (metastatic breast cancer; patients with FGF amplified disease) | patients with stable disease greater than 24 weeks (metastatic breast cancer; patients with FGF-pathway non-amplified disease) | concentrations with a modest effect on proliferation as a single agent (CAMA-1 cell line) |
| --- | --- | --- | --- | --- |
| CN1CCN(c2ccc3nc(-c4c(N)c5c(F)cccc5[nH]c4=O)[nH]c3c2)CC1 [Compound A, 4-amino-5-fluoro-3-[5-(4-methylpiperazin-1-yl)-1H-benzimidazol-2-yl]quinolin-2(1H)-one] | 3 | five | 3 | – |
| C[C@]12CC[C@@H]3c4ccc(O)cc4C[C@@H](CCCCCCCCC[S+]([O-])CCCC(F)(F)C(F)(F)F)[C@H]3[C@@H]1CC[C@@H]2O (stereo partly drawn) [Fulvestrant, (7α,17β)-7-[9-[(4,4,5,5,5-Pentafluoropentyl)sulfinyl]nonyl]estra-1,3,5(10)-triene-3,17-diol] | – | – | – | ≥ 0.049 µM |
